Assay results reported in patent US4489091A, “Antilipemic and anti-inflammatory compositions containing sulfonate derivatives” (Taiho Pharmaceutical Company Limited, priority 1980, dated 1984).
Like-named read-outs stand apart in the source and are kept apart here.

What was measured:
triglycerides = assay: Antilipemic effect: percent triglycerides inhibition in plasma of rats given an olive oil-cholesterol mixture; assay type: in vivo, male Wistar rats; conditions: for inhibition in vivo at 100 mg/kg: oral 100 mg/kg, read-out: Anti-lipemic effect, TG (percent triglycerides inhibition); for inhibition in vivo at 200 mg/kg: read-out: Anti-lipemic effect, TG (percent triglycerides inhibition), asterisked
Description: (§1) The above compounds of this invention are tested by the following methods for antilipemic effect and acute toxicity. In the column of antilipemic effect in the table, the asterisked values indicate the effect achieved by orally giving 200 mg/kg of the compounds concerned, and the unmarked values, the effect attained by orally giving 100 mg/kg. In the same column, "TG" stands for percent triglycerides inhibition and "CS" percent cholesterol inhibition.
(§2) Seven-week-old male Wistar rats weighing 200 to 220 g are used, 5 rats in each group.
(§3) Each compound of the invention (100 mg or 200 mg) is dissolved in 10 ml of an olive oil-cholesterol mixture (containing 15% of cholesterol). The mixture containing the compound is orally given to the rat with a probe at a dose of 10 ml/kg. Two or 8 hours thereafter, 6 ml of whole blood is withdrawn from the descending aorta of the rat under ether anesthesia with a syringe containing heparin. The blood is centrifuged at 5° C. and 3000 r.p.m. to obtain the plasma. The plasma collected after the lapse of 2 hours is used for determining the triglycerides content, and the plasma obtained 8 hours later for determining the total cholesterol content, using a triglycerides measuring kit (trade mark "Triglycerides-B Test Wako," product of Wako Junyaku Co., Ltd., Japan) and a total cholesterol measuring kit (trade mark "Cholesterol Test Wako," product of the same), respectively. The olive oil-cholesterol mixture containing no compound is similarly given to a control group, while no treatment is conducted for a normal group. The triglycerides and total cholesterol contents in the plasma are also determined for these groups in the same manner as is the case with the test groups.
(§4) The present hyperlipidemia inhibition achieved by the present compound is given by [formula] in which A is the triglycerides (cholesterol) content of the control group, B is the triglycerides (cholesterol) content of the normal group, and C is the triglycerides (cholesterol) content of the group to which the present compound is given.

cholesterol = assay: Antilipemic effect: percent total cholesterol inhibition in plasma of rats given an olive oil-cholesterol mixture; assay type: in vivo, male Wistar rats; conditions: for inhibition in vivo at 100 mg/kg: read-out: Anti-lipemic effect, CS (percent cholesterol inhibition)
Description: as §1, §2, §3, §4

Acute toxicity = conditions: rat, in vivo
Description: Six-week-old male Wistar rats weighing 180 to 200 g are used, 5 rats in each group. Each compound of the invention is suspended in a 30% aqueous solution of polyethylene glycol 6000 and orally given to the rat at the dosage shown in Table 2. The animals are checked for poisoning, body weight and survival to determine the LD50 value.

[1] = plasma 2 hours after dosing, Wistar rat
[2] = oral 100 mg/kg, plasma 8 hours after dosing, Wistar rat
[3] = oral, six-week-old male Wistar rats, suspended in 30% aqueous polyethylene glycol 6000, read-out: LD50

Row | SMILES | inhibition in vivo at 100 mg/kg (triglycerides; [1]) [%] | inhibition in vivo at 100 mg/kg (cholesterol; [2]) [%] | LD50 (Acute toxicity; po) [mg/kg] | LD50 (Acute toxicity; [3]) [mg/kg] | inhibition in vivo at 200 mg/kg (triglycerides; Rattus norvegicus, po, 2 h) [%] | Anti-lipemic effect, CS (percent cholesterol inhibition), asterisked (cholesterol; oral 200 mg/kg (asterisked values), plasma 8 hours after dosing, Wistar rat) [%] | inhibition in vivo at 100 mg/kg (cholesterol; Rattus norvegicus, po, 8 h) [%] | inhibition in vivo at 200 mg/kg (triglycerides; oral 200 mg/kg (asterisked values), plasma 2 hours after dosing, Wistar rat) [%]
1 | CCC(CC)CC(=O)COS(=O)(=O)c1c(C)cc(C)cc1C [Compound 154] | 76 | 70 | > 4000 |  |  |  |  | 
2 | CCCCCC(=O)COS(=O)(=O)c1ccc(OCC)cc1 [Compound 45, 2-oxoheptyl-p-ethoxybenzenesulfonate] | 85 | 80 |  | > 3000 |  |  |  | 
3 | CCCCC(CCCC)C(=O)COS(=O)(=O)c1c(C)cc(C)cc1C [Compound 157] | 67 | 66 | > 4000 |  |  |  |  | 
4 | CCCCCC(=O)COS(=O)(=O)c1ccc(OCCCC)cc1 [Compound 55] |  |  |  | > 3000 | 69 | 40 |  | 
5 | CCC(C)C(=O)COS(=O)(=O)c1c(C)cc(C)cc1C (stereo not drawn) [Compound 147] | 98 | 72 | > 3000 |  |  |  |  | 
6 | CCCC(C)C(=O)COS(=O)(=O)c1c(C)cc(C)cc1C (stereo not drawn) [Compound 150] | 84 | 79 | > 3000 |  |  |  |  | 
7 | CCCC(CC)C(=O)COS(=O)(=O)c1ccc(C)cc1 (stereo not drawn) [Compound 123] | 67 | 60 | > 3000 |  |  |  |  | 
8 | CCOc1ccc(S(=O)(=O)OCC(=O)CCCCCCC(C)C)cc1 [Compound 51] |  |  |  | > 4000 | 70 |  | 62 | 
9 | CCCC(CCC)C(=O)COS(=O)(=O)c1ccc(C)cc1 [Compound 124] | 62 | 42 | > 3000 |  |  |  |  | 
10 | CCCCCCC(=O)COS(=O)(=O)c1ccc(OCC)cc1 [Compound 46, 2-oxooctyl-p-ethoxybenzene sulfonate] | 65 | 62 |  | > 3000 |  |  |  | 
11 | CCCCCCCC(=O)COS(=O)(=O)c1c(C)cc(C)cc1C [Compound 77, 2-oxononanyl-2,4,6-trimethylbenzene sulfonate] | 80 | 74 |  | > 4000 |  |  |  | 
12 | CC(C)CCC(=O)COS(=O)(=O)c1ccccc1 [Compound 12] | 95 | 63 | > 2500 |  |  |  |  | 
13 | Cc1ccc(S(=O)(=O)OCC(=O)CCC(C)C)cc1 [Compound 126] | 61 | 47 | > 3000 |  |  |  |  | 
14 | CCCC(=O)COS(=O)(=O)c1ccc(C)cc1 [Compound 16, 2-oxopentyl-p-toluenesulfonate] | 64 | 31 |  | > 1500 |  |  |  | 
15 | CCCCCCCCCCC(=O)COS(=O)(=O)c1ccc(OCC)cc1 [Compound 48] |  | 55 | > 4000 |  |  |  |  | 72
16 | CCCC(=O)COS(=O)(=O)c1c(C)cc(C)c(C)c1C [Compound 95, 2-oxopentyl-2,3,4,6-tetramethylbenzene sulfonate] | 96 | 97 |  | > 3000 |  |  |  | 
17 | CCOc1ccc(S(=O)(=O)OCC(=O)CC(C)CC)cc1 (stereo not drawn) [Compound 136] | 80 | 99 | > 4500 |  |  |  |  | 
18 | CCOc1ccc(S(=O)(=O)OCC(=O)C(C)CC)cc1 (stereo not drawn) [Compound 49] | 90 | 96 | > 2000 |  |  |  |  | 
19 | CCCCCCCC(=O)COS(=O)(=O)c1ccc(C)cc1 [Compound 20] | 71 | 47 | > 3000 |  |  |  |  | 
20 | CCCCCC(C)C(=O)COS(=O)(=O)c1ccc(OCC)cc1 (stereo not drawn) [Compound 146] | 85 | 77 | > 4000 |  |  |  |  | 
